{"source": "patent US5281406A", "about": "“Recovery of C60 and C70 buckminsterfullerenes from carbon soot by supercritical fluid extraction and their separation by adsorption chromatography” (Analytical Bio-Chemistry Laboratories, Inc., priority 1992, dated 1994)", "key": {"[1]": {"conditions": "room temperature; cited from earlier work"}, "[2]": {"experiment": "Solubility of C60 and C70 fullerenes in methylene chloride/toluene mixtures", "type": "physicochemical", "source_text": "The solubilities of C60 and C70 were established for the binary solvent system of toluene and methylene chloride using mixtures varying in composition from 100% to 0% of each component."}, "[3]": {"experiment": "Reported or stated solubility in single organic solvents (benzene, liquid toluene, organic solvents)", "type": "physicochemical"}, "[4]": {"conditions": "many organic solvents, several weeks; cited from earlier work"}, "[5]": {"conditions": "stable to pressures up to; Yoo and Nellis, Science, 254, p. 1489, 1991; cited from earlier work"}, "[6]": {"conditions": "0.0% CH2Cl2 / 100% toluene, duplicate samples 1 and 2"}, "[7]": {"conditions": "25.0% CH2Cl2 / 75% toluene, duplicate samples 3 and 4"}, "[8]": {"conditions": "50.0% CH2Cl2 / 50% toluene, duplicate samples 5 and 6"}, "[9]": {"conditions": "75.0% CH2Cl2 / 25% toluene, duplicate samples 7 and 8"}, "[10]": {"conditions": "100.0% CH2Cl2 / 0% toluene, duplicate samples 9 and 10"}}, "note": "Several values for one entry are separate records, joined by “and”; a condition that tells them apart may be missing. Equal values may be shown once."}
{"molecule": "c12c3c4c5c1c1c6c7c2c2c8c3c3c9c4c4c%10c5c5c1c1c6c6c%11c7c2c2c7c8c3c3c8c9c4c4c9c%10c5c5c1c1c6c6c%11c2c2c7c3c3c8c4c4c9c5c1c1c6c2c3c41", "note": "[C60, buckminsterfullerene]", "values": [{"measurement": "Reported solubility in benzene", "setting": "[1]", "value": 5000, "unit": "µg/mL"}, {"measurement": "Solubility", "setting": "[2]; [6]", "value": "3530 µg/mL and 3470 µg/mL"}, {"measurement": "Solubility", "setting": "[2]; [7]", "value": 2830, "unit": "µg/mL"}, {"measurement": "Solubility", "setting": "[2]; [8]", "value": "1783 µg/mL and 1797 µg/mL"}, {"measurement": "Solubility", "setting": "[2]; [9]", "value": "895 µg/mL and 896 µg/mL"}, {"measurement": "Solubility", "setting": "[2]; [10]", "value": "556 µg/mL and 526 µg/mL"}, {"measurement": "Solubility in organic solvents (in words)", "setting": "[3]", "value": "very low solubility"}, {"measurement": "Stability in organic solvents (in words)", "setting": "[4]", "value": "stable in many organic solvents for several weeks"}, {"measurement": "Reported stability to pressure", "setting": "[5]", "value": "up to 2.5×10^6 psi"}]}
{"molecule": "c12c3c4c5c1c1c6c7c2c2c8c3c3c9c4c4c%10c5c5c1c1c6c6c%11c%12c%13c%14c%15c%16c%17c%14c%14c%18c%13c%11c1c1c5c%10c5c(c%14c%10c%17c%11c%13c%16c%14c%16c%15c%12c%12c%16c(c2c7c%126)c2c8c3c(c%13c%142)c2c9c4c5c%10c%112)c%181", "note": "[C70]", "values": [{"measurement": "Solubility", "setting": "[2]; [6]", "value": "611 µg/mL and 597 µg/mL"}, {"measurement": "Solubility", "setting": "[2]; [7]", "value": 500, "unit": "µg/mL"}, {"measurement": "Solubility", "setting": "[2]; [8]", "value": "328 µg/mL and 330 µg/mL"}, {"measurement": "Solubility", "setting": "[2]; [9]", "value": 184, "unit": "µg/mL"}, {"measurement": "Solubility", "setting": "[2]; [10]", "value": "106 µg/mL and 95 µg/mL"}, {"measurement": "Solubility in organic solvents (in words)", "setting": "[3]", "value": "very low solubility"}]}
